Assays:
CHO-CGalT cells [1] = assay: Incorporation of pacFAs into cellular lipids, lipid extracts analysed by nano-ESI-MS/MS; type: cell-based; settings: 100 μM, 16 hours
Description: FIGS. 7A and 7B. Mass spectrometric analysis of photoactivatable and clickable PC species. CHO-CGaIT cells (−5×10^7 cells) were labeled for 16 hours in delipidated medium in the absence (upper panel) or presence (lower panel) of 100 μM (FIG. 7A) C15pacFA or (FIG. 7B) C16pacFA. Lipids were extracted, dried and subsequently dissolved in 5 mM ammonium acetate in MeOH and subjected to nano-ESI-MS/MS. Shown are PREC184 spectra visualizing choline phosphate-containing lipids. Abbreviations give the total number of carbon atoms of fatty acids attached and the numbers of double bonds within the fatty acid. Transparent bars highlight PC species containing the pacFAs.
Given the small size of fatty acids, additional functional groups might have an impact on their physical properties. Due to the rigidity of the triple bond pacFAs are slightly kinked in the end and their overall length is shorter compared with their corresponding natural counterparts. […] Phosphatidylcholine (PC) is the major lipid class in eukaryotic cells. To analyze choline phosphate containing species, a precursor ion scanning procedure was employed selecting for fragments with a mass of 184 Da. […] UV irradiation of the lipid extracts gave rise to peaks with a mass 28 Da lower than the corresponding pacPC species due to the release of nitrogen followed by either an α-hydrogen migration or an intramolecular crosslink of the carbene (data not shown).^[4] […] SM16:0 is the major SM species in CHO cells. Its biosynthesis requires two palmitoyl-CoA: (i) as a precursor of the sphingoid backbone and (ii) for its N-acylation. The length of the N-acylated fatty acid is strictly controlled since there is no SM14:0 and only a minor amount of SM18:0 in CHO cells.^[5] Therefore, we assumed that the chain length of C15pacFA might interfere with its incorporation into SM. […]
Lipids were extracted according to Bligh and Dyer and analyzed as described previously (K. Retra, O. B. Bleijerveld, R. A. van Gestel, A. G. Tielens, J. J. van Hellemond, J. F. Brouwers, Rapid Commun. Mass Spectrom. 2008, 22, 1853.^[20]

CHO-CGalT cells [2] = assay: Morphology of cells after labeling with pacFAs; type: cell-based; settings: cells labeled with pacFA
[3] = UV activation of the photoactivatable diazirine ring, loss of absorption at 349.5 nm; type: physicochemical; settings: ethanolic solution, thirty seconds of irradiation, 200 W mercury lamp, filter below 350 nm
Description: FIG. 9. Panel A, Activation of the photoactivatable diazirine ring was optimized by exposing an ethanolic solution of 10-azi-stearic acid (10-ASA) under the described conditions to UV-light for the indicated time. Absorbance at 349.5 nm was measured to monitor decay of 10-ASA. Panel B, A solution of defatted BSA (1 mg/ml) was irradiated under the same conditions and analyzed by SDS-PAGE.
Samples were irradiated applying a 200 W high pressure mercury lamp (Oriel Photomax) equipped with a PYREX® glass filter to remove wavelengths below 350 nm. Samples were placed on ice at a distance from 35 cm from the light source. In order to optimize cross-linking conditions we made use of the characteristic absorption of the diazirine group (FIG. 8). An ethanolic solution of 10-azi stearic acid (10-ASA) was irradiated under the conditions described above and the loss of absorption at 349.5 nm was monitored (FIG. 9, Panel A). Thirty seconds of irradiation activated 95% of the photoactivatable group. Samples were UV irradiated for 1 minute. To exclude degradation of proteins under these conditions a 1 mg/ml solution of BSA was irradiated up to 5 minutes and analyzed by gel electrophoresis and subsequent Coomassie staining (FIG. 9, Panel B). […]

[4] = system: membrane and cytosolic proteins of CHO-CGalT cells; assay: In vivo labeling of cells with C15pacFA, alexa488-azide click of membranes and cytosol, SDS-PAGE in-gel fluorescence; type: cell-based; settings: membranes and cytosol after UV irradiation
Description: FIG. 2. In vivo labeling of proteins interacting with lipids. CHO-CGalT cells were labeled with and without 100 μM C15pacFA for 16 hours. Where indicated, cells were UV irradiated. Total membranes were separated from cytosol. The cytosolic proteins were precipitated by CHCl3/MeOH precipitation and total membranes as well as the cytosolic precipitate were subjected to click reaction conditions using alexa488-azide or biotin-azide. Panel A, Proteins labeled with alexa488-azide were separated by SDS-PAGE and analyzed by in-gel fluorescence. […] The lanes were cut into ten gel pieces as indicated and analyzed by mass spectrometry as described herein. […]
In order to see whether pacFAs can be used to investigate protein-lipid interactions in vivo, we administered C15pacFA to cells. […] Both membranes and cytosol were subjected to click reaction conditions and samples were analyzed by SDS-PAGE and in-gel fluorescence (FIG. 2). […] 208 proteins were identified that were exclusively detected upon labeling cells with C15pacFA (FIG. 2, Panel D, lane III). […] Proteins that were exclusively detected upon labeling with C15pacFA and subsequent cross-linking (lane IV) are given in Table 2. […]

[5] = biological target: defatted bovine serum albumin (BSA) (Bos taurus, UniProt P02769); assay: Photo-affinity labeling of defatted BSA with C15pacFA, click reaction with biotin-azide, Western blot; type: binding; settings: incubation with C15pacFA, UV-irradiation and click reaction with biotin-azide
Chain of defatted bovine serum albumin (BSA) (P02769 25-607): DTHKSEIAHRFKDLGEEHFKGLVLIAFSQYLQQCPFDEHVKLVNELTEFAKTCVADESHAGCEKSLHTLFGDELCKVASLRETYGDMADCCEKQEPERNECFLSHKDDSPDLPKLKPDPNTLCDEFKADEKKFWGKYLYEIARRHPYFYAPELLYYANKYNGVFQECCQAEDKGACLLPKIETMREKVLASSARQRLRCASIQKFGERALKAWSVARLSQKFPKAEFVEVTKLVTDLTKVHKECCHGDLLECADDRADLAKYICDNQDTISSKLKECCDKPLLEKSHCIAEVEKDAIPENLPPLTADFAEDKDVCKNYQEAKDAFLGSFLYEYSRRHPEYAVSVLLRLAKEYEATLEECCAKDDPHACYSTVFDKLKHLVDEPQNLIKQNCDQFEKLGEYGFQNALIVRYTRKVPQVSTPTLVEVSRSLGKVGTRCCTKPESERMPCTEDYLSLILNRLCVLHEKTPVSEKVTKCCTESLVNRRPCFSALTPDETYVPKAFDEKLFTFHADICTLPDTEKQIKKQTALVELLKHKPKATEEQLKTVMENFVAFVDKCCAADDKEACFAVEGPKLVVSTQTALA
Description: As a proof-of-concept that C15pacFA can be used to tag proteins with an affinity for fatty acids, defatted bovine serum albumin (BSA) was incubated with C15pacFA and subsequently UV-irradiated. Thereafter, the mixture was subjected to a click reaction, applying biotin-azide (see FIG. 5). […] CuSO4 serves as a source for Cu(I) that is required for the catalytic cycle of the [3+2] cyclo-addition and was formed in situ by the addition of the reducing agent TCEP.
Samples were irradiated applying a 200 W high pressure mercury lamp (Oriel Photomax) equipped with a PYREX® glass filter to remove wavelengths below 350 nm. Samples were placed on ice at a distance from 35 cm from the light source. […] Samples were UV irradiated for 1 minute. […]

lysozyme = lysozyme (Gallus gallus, UniProt P00698); assay: Photo-affinity labeling of lysozyme with C15pacFA (specificity control), click reaction with biotin-azide, Western blot; type: binding; settings: same conditions as BSA; protein known not to interact with lipids
Chain of lysozyme (P00698 19-147): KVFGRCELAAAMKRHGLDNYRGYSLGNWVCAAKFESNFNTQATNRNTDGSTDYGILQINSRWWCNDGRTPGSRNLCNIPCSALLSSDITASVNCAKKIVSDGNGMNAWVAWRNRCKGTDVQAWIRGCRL
Description: FIG. 5. Panel A, Proof-of-concept for the specific interaction of pacFA with a fatty acid binding protein. An ethanolic solution of C15pacFA was added to a solution of defatted-BSA or lysozyme in PBS as described above. After incubating for 1 hour at room temperature samples were UV-irradiated and 20 μl were subjected to click reaction with biotin-azide. Samples were analyzed by SDS-PAGE, followed by Western blotting and detection via NeutrAvidin coupled to horse radish peroxidase. Panel B, SDS-PAGE and subsequent staining with Coomassie brilliant blue.
Serum albumin binds and transports fatty acids. As a proof-of-concept that C15pacFA can be used to tag proteins with an affinity for fatty acids, defatted bovine serum albumin (BSA) was incubated with C15pacFA and subsequently UV-irradiated. […]
Samples were irradiated applying a 200 W high pressure mercury lamp (Oriel Photomax) equipped with a PYREX® glass filter to remove wavelengths below 350 nm. […] An ethanolic solution of 10-azi stearic acid (10-ASA) was irradiated under the conditions described above and the loss of absorption at 349.5 nm was monitored (FIG. 9, Panel A). […] To exclude degradation of proteins under these conditions a 1 mg/ml solution of BSA was irradiated up to 5 minutes and analyzed by gel electrophoresis and subsequent Coomassie staining (FIG. 9, Panel B). […]

HeLa cells = assay: Cell imaging of bifunctional lipids: UV fixation, lipid extraction, alexa-azide click, fluorescent microscopy; type: cell-based; settings: UV irradiated versus non-irradiated, non-crosslinked lipids extracted
Description: Microscopy of lipids requires a fluorescent tag on the lipid. In contrast to polyene lipids, most fluorescent tags interfere with the properties of thus labeled lipids.^[24] […] Lipids are highly dynamic and their chemical fixation remained difficult. […] To this end, C15pacFA was administered to cells. Lipids were fixed in vivo by UV-irradiation followed by the fixation of cells with methanol. In order to remove non-protein-crosslinked lipids, cells were extracted according to Bligh and Dyer.^[27] Samples were subjected to click reactions with alexa-azide and lipids were visualized by fluorescent microscopy.
HeLa cells grown on cover slips in a 24-well plate were labeled for 1 hour in 0.5 ml DMEM 4.5 g/liter glucose supplemented with 10% delipidated FCS and 100 μM C15pacFA. The cells were washed with 0.5 mL PBS, overlaid with 0.5 mL PBS and UV irradiated on ice for 2 minutes. After UV irradiation the cells were fixed with 0.5 mL of −20° C. cold MeOH for 10 minutes. After fixation cells were subjected to one, two or three rounds of lipid extraction according to Bligh and Dyer using 0.5 ml of CHCl3/MeOH/AcOH 10:55:0.75 v/v for each extraction (for each extraction coverslips were incubated for 1 minute at room temperature). The coverslips were washed with 0.5 mL PBS and then subjected to click reactions. […]

[6] = Stability of terminal alkyne towards UV irradiation, 1H-NMR analysis; type: physicochemical; settings: irradiation for 5 minutes

C#CCCCC1(CCCCCCCCC(=O)O)N=N1 [C16pacFA, 9-(3-Pent-4-ynyl-3-H-diazirin-3-yl)-nonanoic acid]
incorporation into sphingomyelin (SM) (CHO-CGalT cells [1]): no incorporation | morphological differences after labeling (CHO-CGalT cells [2]): No morphological differences were observed

CCCCCCCCC1(CCCCCCCCC(=O)O)N=N1 [10-ASA, 10-azi-stearic acid]
activation of the photoactivatable group [3]: 95%

C#CCCCC1(CCCCCCCCC(=O)O)N=N1 [C15pacFA, 9-(3-pent-4-ynyl-3-H-diazirin-3-yl)-nonanoic acid]
proteins labeled by photo-affinity labeling (in-gel fluorescence) [4]: not only membrane proteins were labeled by means of photo-affinity labeling but also cytosolic proteins | labeling of BSA [5]: BSA could be labeled | incorporation into sphingomyelin (SM) (CHO-CGalT cells [1]): No significant incorporation | incorporation into phosphatidylcholine (pacPC species) (CHO-CGalT cells [1]; precursor ion scan 184 Da): led to additional peaks corresponding to pacPC species | morphological differences after labeling (CHO-CGalT cells [2]): No morphological differences were observed | labeling of lysozyme (lysozyme): no labeling of lysozyme was observed | fluorescent structures after click reaction with alexa-azide (HeLa cells): Fluorescent structures were only visible in the UV irradiated samples

C#CCc1ccccc1 [3-phenyl-1-propyne]
stability towards UV irradiation [6]: stability of alkynes towards UV irradiation
